# Test results published in the NIST ThermoML archive (doi:10.1016/j.jct.2016.05.005).
# Numbers after ± are expanded uncertainties.
# Tests used:
# [1] = Crystal; DTA
# [2] = Molar enthalpy of transition or fusion; conditions: Crystal; DSC
smiles,measurement,setting,value
COC(=O)N(OC)c1ccccc1COc1ccn(-c2ccc(Cl)cc2)n1 [Pyraclostrobin],Normal melting temperature,[1],60.6 ± 0.6 °C
same,Molar enthalpy of transition or fusion,[2],7.42 ± 0.311 kcal/mol
